Reference: patent publication US20040034099A1, “Pharmaceutical composition” (priority 2002, published 2004)

Assay: Excipient screen (fillers, disintegrants, glidants, lubricants): tablets evaluated at accelerated conditions
Assay type: physicochemical
Conditions: tablets at accelerated conditions (40° C./75% RH); for filler the active ingredient is compatible with: physical characteristics and content of active ingredient
Description: Experiments to screen fillers, disintegrants, glidants and lubricants were conducted for the composition according to the present invention. Tablets were evaluated for physical characteristics and content of active ingredient at accelerated conditions (40° C./75% RH). The assay values were analysed statistically. […] Of all lubricants examined, chlorambucil was most compatible with stearic acid.

SMILES | filler the active ingredient is compatible with | lubricant the active ingredient is most compatible with (of all lubricants examined)
N[C@@H](Cc1ccc(N(CCCl)CCCl)cc1)C(=O)O [melphalan, 4-[bis(2-chloroethyl)amino]-L-phenylalanine] | microcrystalline cellulose | –
O=C(O)CCCc1ccc(N(CCCl)CCCl)cc1 [chlorambucil, 4-[bis(2-chloroethyl)amino]-benzenebutanoic acid] | a mixture of anhydrous lactose and microcrystalline cellulose | stearic acid
